Read-outs that look alike come from different tables or passages of the source.
Experiments:
[1] = biological target: BACE 1 (Beta Secretase enzyme) (Homo sapiens, UniProt P56817); assay: In vitro enzymatic BACE FRET assay; type: biochemical; parameters: BACE 1 FRET assay (uM): scale not given here
Procedure: In Vitro Enzymatic BACE FRET (Fluorescence Resonance Energy Transfer) Assay (Enzyme Assay Data in Table 1)
The assay buffer used in this screen is 0.05 M acetate, pH 4.2, 10% DMSO final, 100 uM genapol (which is a nonionic detergent, below its Critical Micelle Concentration). […] The assay is effectively started by the addition of FRET substrate (50 nM) and the combination is incubated for one hour. The FRET assay is terminated with by addition of Tris buffer, which raises the pH to neutrality, and the fluorescence is determined. The FRET substrate is a peptide with commercially available fluorophore and quencher, on opposite sides of the BACE cleavage site.

[2] = tested on: Aβ40 in conditioned medium of cells stably expressing Amyloid Precursor Protein (APP); assay: In vitro BACE cell-based assay (HEK cell assay), Aβ40 sandwich ELISA; conditions: IC50 range symbols, Table 1, Aβ40, 24 h incubation, read-out: HEK cell assay
Procedure: In Vitro BACE Cell-Based Assay:
The cell-based assay measures inhibition or reduction of Aβ40 in conditioned medium of test compound treated cells expressing amyloid precursor protein.
Cells stably expressing Amyloid Precursor Protein (APP) were plated at a density of 40K cells/well in 96 well plates (Costar). The cells were cultivated for 24 hours at 37° C. and 5% CO2 in DMEM supplemented with 10% FBS. The test compounds were then added to cells in 10-point dose response concentrations with the starting concentration being either 100 μM or 10 μM. The compounds were diluted from stock solutions in DMSO and the final DMSO concentration of the test compounds on cells was 0.1%. After 24 h of incubation with the test compounds the supernatant conditioned media was collected and the Aβ 40 levels were determined using a sandwich ELISA. The IC50 of the compound was calculated from the percent of control or percent inhibition of Aβ 40 as a function of the concentration of the test compound.
The sandwich ELISA to detect Aβ 40 was performed in 96 well microtiter plates, which were pre-treated with goat anti-rabbit IgG (Pierce). The capture and detecting antibody pair that were used to detect Aβ 40 from cell supernatants were affinity purified pAb40 (Biosource) and biotinylated 6E10 (Signet Labs Inc.), respectively. The optimal concentration for the pAb40 antibody was 3 μg/ml in Superblock/TBS (Pierce) that was supplemented with 0.05% Tween 20 (Sigma).
Cellular supernatants were incubated with the capture antibody for 3 h at 4° C., followed by 3 wash steps in TBS-tween (0.05%). The detecting antibody incubation was for 2 h at 4° C., again followed by the wash steps as described previously. The final readout of the ELISA is Time-Resolved Fluorescence (counts per minute) using Delfia reagents Streptavidin-Europium and Enhancement solutions (Perkin Elmer) and the Victor 2 multilabel counter (Perkin Elmer).

[3] = IC50 range symbols, Table 1, read-out: BACE 1 FRET assay
[4] = bound stated, read-out: IC50 value in the FRET BACE enzyme assay

Sequence of BACE 1 (Beta Secretase enzyme) (P56817 46-501, species assumed): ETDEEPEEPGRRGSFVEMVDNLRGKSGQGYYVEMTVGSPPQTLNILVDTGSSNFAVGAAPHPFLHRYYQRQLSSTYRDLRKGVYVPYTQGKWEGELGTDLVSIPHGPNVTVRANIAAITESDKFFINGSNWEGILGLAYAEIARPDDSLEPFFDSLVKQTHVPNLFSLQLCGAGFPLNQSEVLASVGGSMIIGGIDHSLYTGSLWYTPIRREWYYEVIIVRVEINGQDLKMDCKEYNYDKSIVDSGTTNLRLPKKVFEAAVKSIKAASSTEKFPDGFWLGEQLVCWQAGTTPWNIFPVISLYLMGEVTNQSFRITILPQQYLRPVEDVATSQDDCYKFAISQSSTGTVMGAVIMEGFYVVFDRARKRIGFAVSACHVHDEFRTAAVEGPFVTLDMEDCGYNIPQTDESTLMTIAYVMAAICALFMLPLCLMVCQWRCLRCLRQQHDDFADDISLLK

Compound | IC50 [1, 3] [µM] | IC50 ([2]; Homo sapiens, HEK293, 24 h) [µM] | IC50 [2] [µM] | BACE 1 FRET assay (uM) ([1]; IC50 range symbols, Table 1) | IC50 [1, 4] [µM]
COCCNC(=O)CCc1cc2cc(-c3ccccc3C)ccc2nc1N [Example 18, 3-(2-amino-6-o-tolylquinolin-3-yl)-N-(2-methoxyethyl)propanamide] | < 0.5 | > 5 |  |  | 
Cc1ccccc1-c1ccc2nc(N)c(CCC(=O)NCC3CCOCC3)cc2c1 [Example 19, 3-(2-amino-6-o-tolylquinolin-3-yl)-N-((tetrahydro-2H-pyran-4-yl)methyl)propanamide] | < 0.5 | 1 to 5 |  |  | 
CC(Cc1cc2cc(-c3ccc(F)cc3Cl)ccc2nc1N)C(=O)NC1CCOC(C)(C)C1 (stereo not drawn) [Example 166, 3-(2-amino-6-(2-chloro-4-fluorophenyl)-3-quinolinyl)-N-(2,2-dimethyltetrahydro-2H-pyran-4-yl)-2-methylpropanamide] | < 0.5 | 1 to 5 |  |  | 
N#Cc1ccccc1-c1ccc2nc(N)c(CCC(=O)NCC3CCCCC3)cc2c1 [Example 41, 3-(2-amino-6-(2-cyanophenyl)quinolin-3-yl)-N-(cyclohexylmethyl)propanamide] | < 0.5 | 1 to 5 |  |  | 
Cc1cccnc1-c1ccc2nc(N)c(CC(C)C(=O)NCC(F)(F)F)cc2c1 (stereo not drawn) [Example 110, 3-(2-amino-6-(3-methylpyridin-2-yl)quinolin-3-yl)-2-methyl-N-(2,2,2-trifluoroethyl)propanamide] | 0.5 to 1 | 0.5 to 1 |  |  | 
Cc1nccn1-c1ccc2nc(N)c(CCC(=O)NCC3CCCCC3)cc2c1 [Example 4, 3-(2-amino-6-(2-methyl-1H-imidazol-1-yl)quinolin-3-yl)-N-(cyclohexylmethyl)propanamide] | > 5 | > 5 |  |  | 
Nc1nc2ccc(-c3ccccc3Cl)cc2cc1CCC(=O)NCC1CCCCC1 [Example 3, 3-(2-amino-6-(2-chlorophenyl)quinolin-3-yl)-N-(cyclohexylmethyl)propanamide] | < 0.5 | 1 to 5 |  |  | 
CNC(=O)[C@@H](C)Cc1cc2cc(-c3c(C)cccc3C(=O)N3CCCC3)ccc2nc1N [Example 155, (S) 3-(2-amino-6-(2-methyl-6-(pyrrolidine-1-carbonyl)phenyl)quinolin-3-yl)-N,2-dimethylpropanamide] | 1 to 5 | 1 to 5 |  |  | 
CNC(=O)C(C)Cc1cc2cc(-c3c(C)cccc3C(=O)N3CCCC3)ccc2nc1N (stereo not drawn) [Example 148, 3-(2-Amino-6-(2-methyl-6-(pyrrolidine-1-carbonyl)phenyl)quinolin-3-yl)-N, 2-dimethylpropanamide] | < 0.5 | < 0.5 |  |  | 
Cc1ccc(NC(=O)CCc2cc3cc(-c4ccccc4C)ccc3nc2N)c(F)c1 [Example 53, 3-(2-amino-6-o-tolylquinolin-3-yl)-N-(2-fluoro-4-methylphenyl)propanamide] | 1 to 5 | 1 to 5 |  |  | 
3-(3-amino-7-o-tolylnaphthalen-2-yl)-N-(6,7-dihydro-5H-cyclopenta[b]pyridin-7-yl)-2-methylpropanamide [Example 73] | < 0.5 |  | 1 to 5 |  | 
COCC1CC1c1ccc2nc(N)c(CC(C)C(=O)NCCC(C)(C)C)cc2c1 (stereo not drawn) [Example 119, 3-(2-amino-6-(2-(methoxymethyl)cyclopropyl)quinolin-3-yl)-N-(3,3-dimethylbutyl)-2-methylpropanamide] | > 5 | > 5 |  |  | 
N-(3-fluoro-3-methylbutyl)-2-methyl-3-(6-(3-methylpyridin-2-yl)quinolin-3-yl)propanamide [Example 101] | < 0.5 |  | < 0.5 |  | 
Nc1nc2ccc(-c3ccc(F)cc3)cc2cc1CCC(=O)NCC1CCCCC1 [Example 65, 3-(2-amino-6-(4-fluorophenyl)quinolin-3-yl)-N-(cyclohexylmethyl)propanamide] | < 0.5 | > 5 |  |  | 
Cc1cccnc1-c1ccc2nc(N)c(CC(C)C(=O)NCCC(C)C)cc2c1 (stereo not drawn) [Example 109, 3-(2-amino-6-(3-methylpyridin-2-yl)quinolin-3-yl)-N-isopentyl-2-methylpropanamide] | < 0.5 | < 0.5 |  |  | 
Nc1nc2ccc(-c3cccnc3)cc2cc1CCC(=O)NCC1CCCCC1 [Example 34, 3-(2-amino-6-(pyridin-3-yl)quinolin-3-yl)-N-(cyclohexylmethyl)propanamide] |  | 1 to 5 |  | _++ | 

Compound | IC50 [1, 3] [µM] | IC50 ([2]; Homo sapiens, HEK293, 24 h) [µM] | IC50 [2] [µM] | BACE 1 FRET assay (uM) ([1]; IC50 range symbols, Table 1) | IC50 [1, 4] [µM]
CNC(=O)C(C)Cc1cc2cc(-c3ccccc3C(C)=O)ccc2nc1N (stereo not drawn) [Example 154, 3-(6-(2-acetylphenyl)-2-aminoquinolin-3-yl)-N,2-dimethylpropanamide] | > 5 | > 5 |  |  | 
Cc1ccccc1-c1ccc2nc(N)c(CCC(=O)NCC3CCCCO3)cc2c1 (stereo not drawn) [Example 40, 3-(2-amino-6-o-tolylquinolin-3-yl)-N-((tetrahydro-2H-pyran-2-yl)methyl)propanamide] | < 0.5 | 1 to 5 |  |  | 
Cc1ccccc1-c1ccc2nc(N)c(C[C@@H](C)C(=O)NCc3cccnn3)cc2c1 [Example 81, (R)-3-(2-amino-6-o-tolylquinolin-3-yl)-2-methyl-N-(pyridazin-3-ylmethyl)propanamide] | < 0.5 | 0.5 to 1 |  |  | < 0.05
Cc1ccccc1-c1ccc2nc(N)c(CC(C)C(=O)NCc3cnn(C)c3)cc2c1 (stereo not drawn) [Example 94, 3-(2-amino-6-o-tolylquinolin-3-yl)-2-methyl-N-((1-methyl-1H-pyrazol-4-yl)methyl)propanamide] | < 0.5 | 1 to 5 |  |  | 
Cc1ccccc1-c1ccc2nc(N)c(CCC(=O)NCc3ncco3)cc2c1 [Example 67, 3-(2-amino-6-o-tolylquinolin-3-yl)-N-(oxazol-2-ylmethyl)propanamide] | < 0.5 | 1 to 5 |  |  | 
Cc1ccccc1-c1ccc2nc(N)c(C[C@@H](C)C(=O)NCc3ccncn3)cc2c1 [Example 84, (R)-3-(2-amino-6-o-tolylquinolin-3-yl)-2-methyl-N-(pyrimidin-4-ylmethyl)propanamide] | < 0.5 | < 0.5 |  |  | < 0.05
Cc1ccccc1-c1cc2cc(CC(C)C(=O)NCc3ccccc3)c(N)nc2cn1 (stereo not drawn) [Example 136, 3-(2-amino-6-o-tolyl-1,7-naphthyridin-3-yl)-N-benzyl-2-methylpropanamide] | < 0.5 | 1 to 5 |  |  | < 0.05
Cc1ccccc1-c1ccc2nc(N)c(CCC(=O)NCCC(C)(C)O)cc2c1 [Example 141, 3-(2-amino-6-(2-methylphenyl)-3-quinolinyl)-N-(3-hydroxy-3-methylbutyl)propanamide] | < 0.5 | 0.5 to 1 |  |  | 
Cc1ccccc1-c1ccc2nc(N)c(CC(C)C(=O)NC(C)c3ccccc3F)cc2c1 (stereo not drawn) [Example 106, 3-(2-amino-6-o-tolylquinolin-3-yl)-N-(1-(2-fluorophenyl)ethyl)-2-methylpropanamide] | < 0.5 | > 5 |  |  | < 0.05
Nc1nc2ccc(-c3cscn3)cc2cc1CCC(=O)NCC1CCCCC1 [Example 2, 3-(2-amino-6-(thiazol-4-yl)quinolin-3-yl)-N-(cyclohexylmethyl)propanamide] | 1 to 5 | > 5 |  |  | 
CCC1CC1c1ccc2nc(N)c(CC(C)C(=O)NCCC(C)(C)C)cc2c1 (stereo not drawn) [Example 120, 3-(2-amino-6-(2-ethylcyclopropyl)quinolin-3-yl)-N-(3,3-dimethylbutyl)-2-methylpropanamide] | 0.5 to 1 | > 5 |  |  | 
3-(3-amino-7-o-tolylnaphthalen-2-yl)-N-((S)-1-cyclohexylethyl)propanamide [Example 35] | < 0.5 |  | > 5 |  | 
Cc1ccccc1-c1ccc2nc(N)c(CCC(=O)NCc3ccccc3)cc2c1 [Example 23, 3-(2-amino-6-o-tolylquinolin-3-yl)-N-benzylpropanamide] | < 0.5 | < 0.5 |  |  | 
CCC(Cc1cc2cc(-c3ccccc3C)ccc2nc1N)C(=O)Nc1ccccc1F (stereo not drawn) [Example 50, 2-((2-amino-6-o-tolylquinolin-3-yl)methyl)-N-(2-fluorophenyl)butanamide] | < 0.5 | > 5 |  |  | 
Cc1ccccc1-c1ccc2nc(N)c(CCC(=O)NCC(C)(C)O)cc2c1 [Example 144, 3-(2-amino-6-(2-methylphenyl)-3-quinolinyl)-N-(2-hydroxy-2-methylpropyl)propanamide] | 1 to 5 | 1 to 5 |  |  | 

Reference: patent US9296698B2, “Amino heteroaryl compounds as beta-secretase modulators and methods of use” (Amgen Inc., priority 2009, dated 2016)
